According to PubChem BioAssay (NCI):
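Protocol summary: plate cells (96-well), add compound at 5 concentrations, incubate 48 h, interpolate endpoints linearly. Abbreviation: GI50, concentration required for 50% inhibition of growth. At the TGI there is no net growth.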

What was measured:
Test in all cases: NCI tumour cell line growth inhibition, 48 h
[1] = tested on: 786-0 renal
[2] = tested on: A498 renal
[3] = tested on: A549 NSCLC
[4] = tested on: ACHN renal
[5] = tested on: BT-549 breast
[6] = tested on: CAKI-1 renal
[7] = tested on: CCRF-CEM leukemia
[8] = tested on: COLO 205 colon
[9] = tested on: DU-145 prostate
[10] = tested on: EKVX NSCLC
[11] = tested on: HCC-2998 colon
[12] = tested on: HCT-116 colon
[13] = tested on: HCT-15 colon
[14] = tested on: HL-60(TB) leukemia
[15] = tested on: HOP-62 NSCLC
[16] = tested on: HOP-92 NSCLC
[17] = tested on: HS 578T breast
[18] = tested on: HT29 colon
[19] = tested on: IGROV1 ovarian
[20] = tested on: K-562 leukemia
[21] = tested on: KM12 colon
[22] = tested on: LOX IMVI melanoma
[23] = tested on: M14 melanoma
[24] = tested on: MALME-3M melanoma
[25] = tested on: MCF7 breast
[26] = tested on: MDA-MB-231 breast
[27] = tested on: MDA-MB-435
[28] = tested on: MOLT-4 leukemia
[29] = tested on: NCI-H226 lung
[30] = tested on: NCI-H23 lung
[31] = tested on: NCI-H460 lung
[32] = tested on: NCI-H522 lung
[33] = tested on: NCI/ADR-RES ovarian
[34] = tested on: OVCAR-3 ovarian
[35] = tested on: OVCAR-4 ovarian
[36] = tested on: OVCAR-5 ovarian
[37] = tested on: OVCAR-8 ovarian
[38] = tested on: PC-3 prostate
[39] = tested on: RPMI-8226 leukemia
[40] = tested on: RXF 393 renal
[41] = tested on: SF-268 CNS
[42] = tested on: SF-295 CNS
[43] = tested on: SF-539 CNS
[44] = tested on: SK-MEL-2 melanoma
[45] = tested on: SK-MEL-28 melanoma
[46] = tested on: SK-MEL-5 melanoma
[47] = tested on: SK-OV-3 ovarian
[48] = tested on: SN12C renal
[49] = tested on: SNB-75 CNS
[50] = tested on: SR leukemia
[51] = tested on: SW-620 colon
[52] = tested on: T-47D breast
[53] = tested on: U251 CNS
[54] = tested on: UACC-257 melanoma
[55] = tested on: UACC-62 melanoma
[56] = tested on: UO-31 renal
[57] = tested on: SNB-19 CNS
[58] = tested on: TK-10 renal

Structure (SMILES): Nc1nc(-n2cccn2)nc(-n2cccn2)c1Br
- GI50 [1]: > 100 µM
- TGI [1]: > 100 µM
- GI50 [2]: 9.7 µM
- TGI [2]: 92.6 µM
- GI50 [3]: > 100 µM
- TGI [3]: > 100 µM
- GI50 [4]: > 100 µM
- TGI [4]: > 100 µM
- GI50 [5]: > 100 µM
- TGI [5]: > 100 µM
- GI50 [6]: 93.7 µM
- TGI [6]: > 100 µM
- GI50 [7]: > 100 µM
- TGI [7]: > 100 µM
- GI50 [8]: > 100 µM
- TGI [8]: > 100 µM
- GI50 [9]: > 100 µM
- TGI [9]: > 100 µM
- GI50 [10]: > 100 µM
- TGI [10]: > 100 µM
- GI50 [11]: > 100 µM
- TGI [11]: > 100 µM
- GI50 [12]: > 100 µM
- TGI [12]: > 100 µM
- GI50 [13]: > 100 µM
- TGI [13]: > 100 µM
- GI50 [14]: > 100 µM
- TGI [14]: > 100 µM
- GI50 [15]: > 100 µM
- TGI [15]: > 100 µM
- GI50 [16]: > 100 µM
- TGI [16]: > 100 µM
- GI50 [17]: > 100 µM
- TGI [17]: > 100 µM
- GI50 [18]: > 100 µM
- TGI [18]: > 100 µM
- GI50 [19]: > 100 µM
- TGI [19]: > 100 µM
- GI50 [20]: > 100 µM
- TGI [20]: > 100 µM
- GI50 [21]: > 100 µM
- TGI [21]: > 100 µM
- GI50 [22]: > 100 µM
- TGI [22]: > 100 µM
- GI50 [23]: > 100 µM
- TGI [23]: > 100 µM
- GI50 [24]: > 100 µM
- TGI [24]: > 100 µM
- GI50 [25]: > 100 µM
- TGI [25]: > 100 µM
- GI50 [26]: > 100 µM
- TGI [26]: > 100 µM
- GI50 [27]: > 100 µM
- TGI [27]: > 100 µM
- GI50 [28]: > 100 µM
- TGI [28]: > 100 µM
- GI50 [29]: > 100 µM
- TGI [29]: > 100 µM
- GI50 [30]: > 100 µM
- TGI [30]: > 100 µM
- GI50 [31]: > 100 µM
- TGI [31]: > 100 µM
- GI50 [32]: > 100 µM
- TGI [32]: > 100 µM
- GI50 [33]: > 100 µM
- TGI [33]: > 100 µM
- GI50 [34]: > 100 µM
- TGI [34]: > 100 µM
- GI50 [35]: > 100 µM
- TGI [35]: > 100 µM
- GI50 [36]: > 100 µM
- TGI [36]: > 100 µM
- GI50 [37]: > 100 µM
- TGI [37]: > 100 µM
- GI50 [38]: > 100 µM
- TGI [38]: > 100 µM
- GI50 [39]: > 100 µM
- TGI [39]: > 100 µM
- GI50 [40]: > 100 µM
- TGI [40]: > 100 µM
- GI50 [41]: > 100 µM
- TGI [41]: > 100 µM
- GI50 [42]: > 100 µM
- TGI [42]: > 100 µM
- GI50 [43]: > 100 µM
- TGI [43]: > 100 µM
- GI50 [44]: > 100 µM
- TGI [44]: > 100 µM
- GI50 [45]: > 100 µM
- TGI [45]: > 100 µM
- GI50 [46]: > 100 µM
- TGI [46]: > 100 µM
- GI50 [47]: > 100 µM
- TGI [47]: > 100 µM
- GI50 [48]: > 100 µM
- TGI [48]: > 100 µM
- GI50 [49]: 24.6 µM
- TGI [49]: > 100 µM
- GI50 [50]: > 100 µM
- TGI [50]: > 100 µM
- GI50 [51]: > 100 µM
- TGI [51]: > 100 µM
- GI50 [52]: > 100 µM
- TGI [52]: > 100 µM
- GI50 [53]: > 100 µM
- TGI [53]: > 100 µM
- GI50 [54]: > 100 µM
- TGI [54]: > 100 µM
- GI50 [55]: > 100 µM
- TGI [55]: > 100 µM
- GI50 [56]: > 100 µM
- TGI [56]: > 100 µM

Structure (SMILES): CCN(CC)CCC(=O)Nc1cccc2c1C(=O)c1c(c(O)c3ccccc3c1O)C2=O
- GI50 [1]: 2.08 µM
- TGI [1]: 4.39 µM
- GI50 [2]: 17.7 µM
- TGI [2]: 47.6 µM
- GI50 [3]: 17.7 µM
- TGI [3]: 57 µM
- GI50 [4]: 4.63 µM
- TGI [4]: 38.5 µM
- GI50 [5]: 19.5 µM
- TGI [5]: 52.3 µM
- GI50 [6]: > 100 µM
- TGI [6]: > 100 µM
- GI50 [7]: 1.34 µM
- TGI [7]: 4.71 µM
- GI50 [8]: 20.7 µM
- TGI [8]: > 100 µM
- GI50 [9]: 15.5 µM
- TGI [9]: 61.2 µM
- GI50 [11]: > 100 µM
- TGI [11]: > 100 µM
- GI50 [12]: 8.8 µM
- TGI [12]: > 100 µM
- GI50 [13]: 0.934 µM
- TGI [13]: > 100 µM
- GI50 [14]: > 100 µM
- TGI [14]: > 100 µM
- GI50 [15]: 10.4 µM
- TGI [15]: 39.1 µM
- GI50 [16]: 0.237 µM
- TGI [16]: 8.56 µM
- GI50 [17]: 16.2 µM
- TGI [17]: > 100 µM
- GI50 [18]: 19.3 µM
- TGI [18]: > 100 µM
- GI50 [19]: 18.9 µM
- TGI [19]: 96.8 µM
- GI50 [20]: 2.67 µM
- TGI [20]: 13.8 µM
- GI50 [21]: 21.5 µM
- TGI [21]: > 100 µM
- GI50 [22]: 5.77 µM
- TGI [22]: 23.7 µM
- GI50 [23]: 35.4 µM
- TGI [23]: > 100 µM
- GI50 [24]: 26.9 µM
- TGI [24]: 88.7 µM
- GI50 [25]: 6.77 µM
- TGI [25]: 22.9 µM
- GI50 [26]: 9.64 µM
- TGI [26]: 26.1 µM
- GI50 [27]: 31 µM
- TGI [27]: > 100 µM
- GI50 [28]: 8.27 µM
- TGI [28]: 72.5 µM
- GI50 [29]: 17.1 µM
- TGI [29]: > 100 µM
- GI50 [30]: 21.9 µM
- TGI [30]: > 100 µM
- GI50 [31]: 13.3 µM
- TGI [31]: 81.3 µM
- GI50 [32]: 80.3 µM
- TGI [32]: > 100 µM
- GI50 [33]: 3.94 µM
- TGI [33]: 40.4 µM
- GI50 [34]: 15 µM
- TGI [34]: 52.2 µM
- GI50 [35]: 4.05 µM
- TGI [35]: 23.1 µM
- GI50 [36]: 14.6 µM
- TGI [36]: 30 µM
- GI50 [37]: 10.5 µM
- TGI [37]: 26.9 µM
- GI50 [38]: 4.6 µM
- TGI [38]: 21.7 µM
- GI50 [39]: 14.2 µM
- TGI [39]: 43.1 µM
- GI50 [40]: 4.16 µM
- TGI [40]: 23.8 µM
- GI50 [41]: 12.7 µM
- TGI [41]: 36.5 µM
- GI50 [42]: 12.8 µM
- TGI [42]: > 100 µM
- GI50 [43]: 3.38 µM
- TGI [43]: 13.8 µM
- GI50 [44]: > 100 µM
- TGI [44]: > 100 µM
- GI50 [45]: 3.65 µM
- TGI [45]: 14.4 µM
- GI50 [46]: 49.7 µM
- TGI [46]: > 100 µM
- GI50 [47]: 85.3 µM
- TGI [47]: > 100 µM
- GI50 [48]: 21.5 µM
- TGI [48]: > 100 µM
- GI50 [57]: 16.8 µM
- TGI [57]: 44.8 µM
- GI50 [49]: 2.11 µM
- TGI [49]: 10.8 µM
- GI50 [50]: 0.878 µM
- TGI [50]: 52.4 µM
- GI50 [51]: 6.93 µM
- TGI [51]: 23 µM
- GI50 [52]: > 100 µM
- TGI [52]: > 100 µM
- GI50 [58]: 20.9 µM
- TGI [58]: 40.9 µM
- GI50 [53]: 10.2 µM
- TGI [53]: 22.7 µM
- GI50 [54]: 41.6 µM
- TGI [54]: > 100 µM
- GI50 [55]: > 100 µM
- TGI [55]: > 100 µM
- GI50 [56]: 1.12 µM
- TGI [56]: 3.31 µM
